Results reported in patent US10336788B2, “Inhibition of cardiac fibrosis in myocardial infarction” (Moerae Matrix, Inc., priority 2014, dated 2019).
No end group written: not given here.

How the values were obtained:
C57BL/6 mice = assay: Histological analysis of fibrosis (Masson's trichrome, Aperio) of hearts 14 days post-AMI; assay type: in vivo, mouse
Method: Mice were euthanized by isoflurane and cervical dislocation at day 14, fixed in fresh 4% paraformaldehyde for 24 hours, paraffin embedded, processed, and stained with standard hematoxylin and eosin (H&E) and Masson's trichrome (MT). Starting at the ligation with fully faced tissue, 14-15 levels were cut on each block at 50 μm (one slide for H&E, one for MT, and 3 unstained; 50 μm skipped and then repeated). […] The area of fibrosis was analyzed in 3-4 blindly chosen hearts, each heart at 14-15 levels (point of ligation to apex), 3 sections at each level. Analysis of collagen was performed blinded to treatment on these 42-45 sections per heart. Slides were scanned using an Aperio Scanscope (Aperio Technologies, Vista, Calif.) and analyzed using Aperio Imagescope. The Algorithm Positive Pixel Count v9 was used to measure the Masson's trichrome staining of collagen (representing both fibrosis and collagen in extracellular matrix), hue value (0.66) and hue width (0.1) were used analyzed the tissue outlined using the pen tool. Each section was analyzed and exported. The N positive/N total value (representing the % collagen of the entire section) was used to determine a weighted average for each slide.
Hearts were obtained from AMI mice and histologically analyzed for fibrosis in Masson's trichrome stained sections in a systemic manner (FIG. 2A).

MK2 = assay: Immunoblot analysis of MK2 activity (HNRNPA0, total MK2, p-MK2) in primary cardiac fibroblasts; assay type: cell-based, rat
Method: Cells were rinsed in PMS and grown in DMEM (cat. #11966-025, Gibco) for 2 hours prior to initiating hypoxia (simulated ischemia). Hypoxia was induced by placing cells in a hypoxia chamber ([…] 150i, Thermo Scientific) in a mixture of 5% CO2/95% N2 to attain a 1% oxygen concentration, according to the manufacturer's instruction. […] The MMI-0100 peptide was added to the cells at the start of the ischemia time. Cells were cultured in 12 well plates. At the time of performing the experiments, all cultures were approximately 70-90% confluent. Three different time points were adopted for each of the three cell lines according to the severity of cell death under hypoxia determined by LDH release: for H9C2 cell line: 8 hr; 16 hr; 24 hr; for HL-1 cell line: 4 hr; 8 hr; 12 hr; for cardiac fibroblast cell line: 16 hr; 32 hr; 48 hr.
The left over cell lysates from the Caspase activity assay were used for the Western blots. […] After blocking with recommended blocking reagents for 1 h at the room temperature, the membranes were incubated overnight at 4° C. with primary antibodies in TBS-T, and then incubated with secondary antibodies conjugated with HRP in TBS-T. HNRNPA0, MAPK2, and phospho-MAPK2 proteins were detected using anti-HNRNPA0 (cat. #HPA036569, 1:1000, Sigma-Aldrich), anti-MAPKAPK2 (cat. #SAB4300553, Sigma-Aldrich), and anti-phospho-MAPKAPK2 (cat. #SAB4300241, 1:1000, Sigma-Aldrich). […]

[1] = tested on: bleomycin-induced pulmonary fibrosis; conditions: Vittal et al. 2013; cited from earlier work

Sequence: YARAAARQARAKALARQLGVAA [MMI-0100]
- histology at the site of infarction (myocyte sparing within scar) (C57BL/6 mice; AMI mice treated with MMI-0100, AMI alone generally all fibrotic): islands of viable myocytes
- fibrosis distant to the site of ischemia (histological sections) (C57BL/6 mice; AMI mice treated with MMI-0100 vs AMI): not found to the same extent
- less fibrosis than untreated AMI mice (C57BL/6 mice; AMI mice, 50 μg/kg/day from 30 minutes post-AMI, day 14): 50%
- fibrosis, area staining blue (Masson's trichrome collagen) (C57BL/6 mice; AMI mice, 50 μg/kg/day from 30 minutes post-AMI, day 14, untreated AMI ~21%): ~11%
- protein levels of MK2 and p-MK2 (MK2; compared to hypoxia alone): did not significantly differ
- MK2 activity, as measured by HNRNPA0 protein levels (MK2; hypoxia, 16, 32, or 48 hours): did not change
- inflammation and fibrosis in bleomycin-induced pulmonary fibrosis [1]: inhibits inflammation and fibrosis
